Data published in patent US9820487B2, “Abscinazole” (NATIONAL UNIVERSITY CORPORATION SHIZUOKA UNIVERSITY, priority 2014, dated 2017).

Key:
[1] = target: T1, ent-kaurene oxidase CYP701A6 (Oryza sativa subsp. japonica, UniProt Q5Z5R4); assay: Ent-kaurene oxidase CYP701A6 inhibition test; type: biochemical; conditions: CYP701A6 + NADPH-P450 reductase ATR2, substrate ent-kaurene, 30° C. 30 minutes; IC50 calculated from two concentrations
T1 sequence (Q5Z5R4 1-505): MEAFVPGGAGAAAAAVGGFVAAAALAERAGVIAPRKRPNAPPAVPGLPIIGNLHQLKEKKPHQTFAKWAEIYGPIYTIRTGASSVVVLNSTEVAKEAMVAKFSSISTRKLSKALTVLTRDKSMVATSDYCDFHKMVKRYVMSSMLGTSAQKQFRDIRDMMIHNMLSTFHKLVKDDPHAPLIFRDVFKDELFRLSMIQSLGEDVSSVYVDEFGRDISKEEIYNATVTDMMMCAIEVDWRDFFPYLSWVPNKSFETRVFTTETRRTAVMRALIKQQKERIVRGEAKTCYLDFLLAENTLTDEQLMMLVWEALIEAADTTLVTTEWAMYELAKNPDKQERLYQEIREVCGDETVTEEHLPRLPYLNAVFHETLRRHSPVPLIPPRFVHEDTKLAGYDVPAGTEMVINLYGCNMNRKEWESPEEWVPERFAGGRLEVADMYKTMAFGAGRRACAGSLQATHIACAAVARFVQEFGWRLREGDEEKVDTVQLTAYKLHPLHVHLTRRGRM
Procedure: To a 1.5 mL microtube, 8 μL of an aqueous solution of 500 μM ent-kaurene as a substrate in 45% cyclodextrin and 8μL of a solution of the sample in dimethylformamide were put. 10 μL of 2.32 μM ent-kaurene oxidase CYP701A6 and 10 μL of 4.6 unit/mL NADPH-P450 reductase ATR2, heated at 30° C. for 5 minutes in advance, were added thereto. 304 μL of ultra-pure water, 40 μL of 500 mM KPB and 20 μL of an aqueous solution of 20 mM NADPH, heated at 30° C. for 10 minutes in advance, were added thereto thereby starting the enzyme reaction. The reaction was carried out at 30° C. for 30 minutes at a rotation speed of 1000 rpm and 100 μL of 1 M hydrochloric acid was added thereto thereby terminating the reaction. 5 μL of 10 μM abietic acid as the internal standard was added thereto, and the solution was extracted with 400 μL of ethyl acetate. The resultant was dried over sodium sulfate and subsequently concentrated under reduced pressure. 50 μL of methanol and 5 μL of 2 M trimethyl silyldiazomethane were added thereto to methylate carboxylic acid and the resultant was thy-solidified using nitrogen. The solidified product was dissolved in 150 μL of hexane and 1 μL of the resultant solution was subjected to a GC-MS analysis to detect the enzyme metabolite ent-kaurene acid. The CYP701A6 inhibition rate of the samples was calculated in accordance with the following formula (4). Note that the peak area of ent-kaurene acid was calculated from the peak area of m/z 273 and that ent-kaurene acid was identified from the area ratio of m/z 257, 213. The peak area of abietic acid was calculated from the area of m/z 256, and abietic acid was identified from the area ratio of m/z 316. Note that dimethylformamide was used for the control in place of the sample solution. Each sample was tested with two different concentrations to act late the 50% inhibition concentration (IC50) based on the enzyme inhibition rates thereof.
Enzyme inhibition rate (%)={1-(Ent-kaurene acid peak area of each sample/Abietic acid peak area of each sample/(Ent-kaurene acid peak area of control/Abietic acid peak area of control }×100 . . . (4)

[2] = system: seeds of thale cress (Arabidopsis thaliana, Col-0); assay: Thale cress seed germination inhibition test (2); type: in vivo; conditions: 120 hours after seed plantation (FIG. 3)
Procedure: Seeds of thale cress (Arabidopsis thaliana, Col-0) were immersed in […] an aqueous solution of 70% ethanol for 30 minutes, subsequently in 500 μL of 100% ethanol for 1 minute, washed three times in 1 mL of distilled water, then immersed in distilled water and, in a dark place, verbalized at 4° C. for 3 days. A solution of the sample in methanol and a solution of ABA in methanol were put in a 1.5 mL microtube, and methanol was removed therefrom under reduced pressure. An aqueous solution of 0.5% agar (containing 1/2 MS medium inorganic salts) at 70° C. was added thereto, followed by stirring the resultant. The obtained solution was placed in a 96-well plate to provide the medium containing the sample. 20 to 30 vernalized seeds of thale cress were planted in each well and cultured at 22° C. under continuous light to monitor the number of seeds germinated over time. The germination rate was calculated in accordance with the following formula (1). Note that the medium prepared using methanol in the same manner as above was used as an untreated control and a germination rate of 100% was achieved 72 hours later from the seed plantation. Germination rates 72 hours later from the seed plantation are shown in FIG. 1 and initial growth conditions of thale cress 120 hours later are shown in FIG. 2.
Germination rate (%)=Number of seeds germinated/Number of seeds planted×100 . . . (1) […]

[3] = target: T2, abscisic acid 8′-hydroxylase CYP707A3 (Arabidopsis thaliana, UniProt Q9FH76); assay: Abscisic acid 8′-hydroxylase CYP707A3 inhibition test; type: biochemical; conditions: CYP707A3 + NADPH-P450 reductase ATR1, substrate ABA, 30° C. 10 minutes; IC50 calculated from two concentrations
T2 sequence (Q9FH76 1-463): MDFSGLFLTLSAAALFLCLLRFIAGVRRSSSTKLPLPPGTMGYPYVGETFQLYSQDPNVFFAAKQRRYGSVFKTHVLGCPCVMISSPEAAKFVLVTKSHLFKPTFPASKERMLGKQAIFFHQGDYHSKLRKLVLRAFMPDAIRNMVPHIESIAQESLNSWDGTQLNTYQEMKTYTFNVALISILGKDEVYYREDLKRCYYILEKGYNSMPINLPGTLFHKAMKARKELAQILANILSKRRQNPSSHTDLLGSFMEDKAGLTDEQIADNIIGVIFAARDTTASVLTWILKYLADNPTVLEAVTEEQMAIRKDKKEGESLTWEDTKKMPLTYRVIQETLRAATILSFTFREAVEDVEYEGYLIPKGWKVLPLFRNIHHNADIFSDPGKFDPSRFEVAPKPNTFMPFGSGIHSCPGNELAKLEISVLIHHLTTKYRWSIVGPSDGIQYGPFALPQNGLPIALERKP
Procedure: In a 1.5 mL microtube, 10 μL of a solution of substrate 250 μM ABA in potassium/phosphate buffer (KPB), 5 μL of a solution of the sample in dimethylformamide, 435 μL of KPB and 40 μL of abscisic acid 8′-hydroxylase CYP707A3+NADPH-P450 reductase ATR1 were put and heated at 30° C. for 10 minutes. 10 μL of a solution of 5 mg/mL NADPH in KPB was added thereto thereby starting the enzyme reaction. The reaction was carried out at 30° C. for 10 minutes at a rotation speed of 1000 rpm, and 25 μL of an aqueous solution of 1 M sodium hydroxide was added thereto thereby terminating the reaction. The reaction solution was allowed to stand at 4° C. for 30 minutes and subsequently 50 μL of 1 M hydrochloric acid was added thereto to convert the enzyme metabolite to phaseic acid (PA). The enzyme reaction solution was subjected to an OASIS HLB cartridge (1 cc, 30 mg; washed with 1 mL of methanol (1% acetic acid) and equilibrated with 1 mL of water (1% acetic acid)) and washed with 1 mL of 10% methanol/water (1% acetic acid) thereby eluting phaseic acid with 1 mL of methanol (1% acetic acid). The eluate was concentrated under reduced pressure (toluene was added to azeotrope acetic acid), the obtained substance was dissolved in 50 μL of methanol. 20 μL of the solution was subjected to HPLC (column, YMC-Pack Hydrosphere C18 (6 mm inner diameter×150 mm length); flow rate 1 mL/min; detection 254 nm) analysis. The CYP707A3 inhibition rate of the samples was calculated in accordance with the following formula (3). Note that dimethylformamide was used for the control in place of the sample solution. Each sample was tested with two different concentrations to calculate the 50% inhibition concentration (IC50) based on the enzyme inhibition rates thereof The results are shown in Table 1.
Enzyme inhibition rate (%)={1-(PA peak area of each sample/PA peak area of control)}×100 . . . (3)

Row | SMILES | potency estimated from few doses [1] | seed germination inhibition compared with (−) form of Comparative Example 1 [2] | potency estimated from few doses [3]
1 | CCCCOCCOCCOCC#Cc1cccc(/C=C(\C(O)C(C)(C)C)n2cncn2)c1 (single isomer, unassigned) [Example 2 (−) Form, (E)-1-(3-(3-(2-(2-butoxyethoxy)ethoxy)prop-1-yn-1-yl)phenyl)-4,4-dimethyl-2-(1H-1,2,4-triazol-1-yl)pent-1-en-3-ol] | 0.062 µM | can inhibit the seed germination even in lower concentrations | 0.012 µM
2 | CCCCOCCOCCOCc1cn(-c2ccc(/C=C(\C(O)C(C)(C)C)n3cncn3)cc2)nn1 (single isomer, unassigned) [Comparative Example 1 (+) Form, 1-(4-(4-((2-(2-butoxyethoxy)ethoxy)methyl)-1H-1,2,3-triazol-1-yl)phenyl)-4,4-dimethyl-2-(1H-1,2,4-triazol-1-yl)pent-1-en-3-ol, reference compound] | 1.3 µM | – | 1.1 µM
3 | COCCOCCOCCOCC#Cc1cccc(/C=C(\C(O)C(C)(C)C)n2cncn2)c1 (single isomer, unassigned) [Example 1 (+) Form, (E)-1-(3-(2,5,8,11-tetraoxatetradec-13-yn-14-yl)phenyl)-4,4-dimethyl-2-(1H-1,2,4-triazol-1-yl)pent-1-en-3-ol] | 1.6 µM | – | 1.2 µM
4 | CCCCOCCOCCOCC#Cc1ccc(/C=C(\C(O)C(C)(C)C)n2cncn2)cc1 (single isomer, unassigned) [Example 4 (+) Form] | 1.5 µM | – | 1 µM
5 | COCCOCCOCCOCC#Cc1ccc(/C=C(\C(O)C(C)(C)C)n2cncn2)cc1 (single isomer, unassigned) [Example 3 (+) Form, (E)-1-(4-(2,5,8,11-tetraoxatetradec-13-yn-14-yl)phenyl)-4,4-dimethyl-2-(1H-1,2,4-triazol-1-yl)pent-1-en-3-ol] | 17 µM | – | 7.7 µM
6 | CCCCOCCOCCOCC#Cc1ccc(/C=C(\C(O)C(C)(C)C)n2cncn2)cc1 (single isomer, unassigned) [Example 4 (−) Form] | 0.77 µM | – | 0.2 µM
7 | CCCCOCCOCCOCc1cn(-c2ccc(/C=C(\C(O)C(C)(C)C)n3cncn3)cc2)nn1 (single isomer, unassigned) [Comparative Example 1 (−) Form, 1-(4-(4-((2-(2-butoxyethoxy)ethoxy)methyl)-1H-1,2,3-triazol-1-yl)phenyl)-4,4-dimethyl-2-(1H-1,2,4-triazol-1-yl)pent-1-en-3-ol, reference compound] | 1.2 µM | – | 0.054 µM
8 | COCCOCCOCCOCC#Cc1ccc(/C=C(\C(O)C(C)(C)C)n2cncn2)cc1 (single isomer, unassigned) [Example 3 (−) Form, (E)-1-(4-(2,5,8,11-tetraoxatetradec-13-yn-14-yl)phenyl)-4,4-dimethyl-2-(1H-1,2,4-triazol-1-yl)pent-1-en-3-ol] | 8.6 µM | – | 1.5 µM
9 | CCCCOCCOCCOCC#Cc1cccc(/C=C(\C(O)C(C)(C)C)n2cncn2)c1 (single isomer, unassigned) [Example 2 (+) Form, (E)-1-(3-(3-(2-(2-butoxyethoxy)ethoxy)prop-1-yn-1-yl)phenyl)-4,4-dimethyl-2-(1H-1,2,4-triazol-1-yl)pent-1-en-3-ol] | 0.12 µM | – | 0.24 µM
